Laboratory results reported in patent US11351173B2, “Substituted pyrrolo[1,2-a]pyrimidines and their use in the treatment of medical disorders” (Bial—R&D Investments, S.A., priority 2014, dated 2022).
In brackets after ≈: the same amount, converted by molar mass.

Tests used:
[1] = target: T1, glucocerebrosidase (Gcase) (Homo sapiens, UniProt P04062); test: Glucocerebrosidase (Gcase) activation assay, 4-methylumbelliferyl-beta-D-glucopyranoside substrate, fluorescence readout; format: biochemical; conditions: for activation at 0.1 µM: read-out: Percent Gcase Activation, 0.1 μM Test Compound; for activation at 1 µM: read-out: Percent Gcase Activation, 1 μM Test Compound
T1 construct: micellar solution containing 10 nM GCase and 100 nM saposin C
T1 sequence (P04062 40-536): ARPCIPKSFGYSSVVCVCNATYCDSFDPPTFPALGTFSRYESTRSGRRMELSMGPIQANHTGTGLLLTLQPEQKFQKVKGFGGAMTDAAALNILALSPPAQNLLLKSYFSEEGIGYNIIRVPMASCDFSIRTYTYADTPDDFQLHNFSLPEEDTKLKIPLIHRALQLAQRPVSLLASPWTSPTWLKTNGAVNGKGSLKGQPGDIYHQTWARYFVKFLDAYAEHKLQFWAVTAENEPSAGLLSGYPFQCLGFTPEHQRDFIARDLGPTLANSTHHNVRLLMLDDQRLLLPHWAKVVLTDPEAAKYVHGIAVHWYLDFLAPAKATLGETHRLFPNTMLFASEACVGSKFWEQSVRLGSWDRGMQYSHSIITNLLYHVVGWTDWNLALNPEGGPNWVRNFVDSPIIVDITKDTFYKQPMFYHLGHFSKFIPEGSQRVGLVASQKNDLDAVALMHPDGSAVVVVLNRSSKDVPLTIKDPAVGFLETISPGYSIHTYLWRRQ
Outline: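 Readout is endpoint fluorescence (ex 365, em 440 nm) after glycine pH 12.5 stop of a 15-min room-temperature reaction. Enzyme mix: GCase 10 nM plus saposin C 100 nM in 0.37 mol % PS/0.32 mM triton micelles, pH 4.7, compound pre-incubated 30 min; substrate solution 2 mM before 1:1 mixing. Tested at 1.0/0.1 μM, then 3-fold, 8-point series up to 5 μM.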

physchem = conditions: water, Compound Solubility in Water
[2] = Compound solubility in water; conditions: for solubility: Compound Solubility in Water

activation at 0.1 µM ([1]; test compound at 0.1 μM) [%]	activation at 1 µM ([1]; test compound at 1.0 μM) [%]	solubility ([2]; water) [µg/mL]	SMILES	further results
10 to 20	> 60	2.1 (≈ 4.87 µM)	COCc1cc(COC)n2ccc(C(=O)NC3(C)CCOc4cc(F)c(F)cc43)c2n1 (stereo not drawn) [III-155]	–
10 to 20	> 60	5.8 (≈ 14.7 µM)	COCCOc1ccc2c(c1)C(NC(=O)c1ccn3c(C)cc(C)nc13)CCC2 (stereo not drawn) [III-104]	–
–	–	–	Cc1cc(C)n2ccc(C(=O)Nc3ccc(-c4ccco4)cc3)c2n1 [III-9]	Percent Gcase Activation, 0.1 μM Test Compound ([1]; test compound at 0.1 μM): *** (greater than 20% Gcase activation); Percent Gcase Activation, 1 μM Test Compound ([1]; test compound at 1.0 μM): +++ (Gcase activation greater than 60%); Compound Solubility in Water ([2]; water): <0.1 µg/mL
> 20	> 60	6.2 (≈ 17.3 µM)	Cc1cc(C)n2ccc(C(=O)N[C@H]3CC[C@H](OCC(C)(C)C)CC3)c2n1 [III-93]	–
< 10	< 30	27.2 (≈ 84.9 µM)	Cc1cc(C)n2ccc(C(=O)NC3CCCc4cccnc43)c2n1 (stereo not drawn) [III-193]	–
10 to 20	> 60	–	Cc1cc(C(F)(F)F)nc2c(C(=O)NC3CCC4(CCCCO4)C3)ccn12 (stereo not drawn) [III-248]	Compound Solubility in Water ([2]; in water): 28.2 µg/mL
< 10	< 30	29.3 (≈ 97.9 µM)	Cc1cc(C)n2ccc(C(=O)NC3CC4CCC(C3)O4)c2n1 (stereo not drawn) [III-169]	–
> 20	> 60	< 1.5	Cc1cc(C)n2ccc(C(=O)Nc3ccc(C)c(-c4ncco4)c3)c2n1 [III-149]	–
> 20	> 60	–	Cc1cc(C)n2ccc(C(=O)Nc3ccc(Cl)c(-c4cnco4)c3)c2n1 [III-214]	solubility ([2]; water, in water): 0.01 µg/mL (≈ 0.0273 µM)
> 20	> 60	0.3 (≈ 0.868 µM)	Cc1cc(C)n2ccc(C(=O)NC34CCC(CC3)c3ccccc34)c2n1 [III-126]	–
< 10	< 30	–	C#Cc1ccc(NC(=O)c2ccn3c(C)cc(C)nc23)c(CO)c1 [III-213]	solubility ([2]; water, in water): 0.7 µg/mL (≈ 2.19 µM)
> 20	> 60	–	Cc1ccnc2c(C(=O)N[C@H]3CCCc4ccccc43)ccn12 [III-255]	solubility ([2]; water, in water): 3.5 µg/mL (≈ 11.5 µM)
> 20	> 60	10.8 (≈ 30.9 µM)	CCCO[C@H]1CC[C@H](NC(=O)c2ccn3c(C)cc(Cl)nc23)CC1 [III-74]	–
> 20	30 to 60	0.06 (≈ 0.163 µM)	Cc1cc(C(F)F)nc2c(C(=O)Nc3ccc(-c4cocn4)cc3)ccn12 [III-30]	–
10 to 20	30 to 60	0.1 (≈ 0.287 µM)	COc1cc(C)n2ccc(C(=O)Nc3ccc(-c4cocn4)cc3)c2n1 [III-52]	–
< 10	< 30	–	Cc1cc(C(F)(F)F)n2ccc(C(=O)Nc3ccc(-c4cocn4)cc3)c2n1 [III-254]	solubility ([2]; water, in water): 0.6 µg/mL (≈ 1.55 µM)
< 10	< 30	16.2 (≈ 50.6 µM)	Cc1cc(C)n2ccc(C(=O)NC3CCCc4cnccc43)c2n1 (stereo not drawn) [III-151]	–
< 10	< 30	0.2 (≈ 0.577 µM)	Cc1cc(C)n2ccc(C(=O)Nc3ccc(-c4cnn(C)c4)nc3)c2n1 [III-21]	–
< 10	> 60	19.4 (≈ 54.6 µM)	Cc1cc(C)n2ccc(C(=O)NCC3CCC4(CCCCO4)CC3)c2n1 (stereo not drawn) [III-123]	–
> 20	> 60	< 1.5	COCC#Cc1ccc(NC(=O)c2ccn3c(C)cc(C)nc23)cc1 [III-4]	–

SMILES	activation at 0.1 µM ([1]; test compound at 0.1 μM) [%]	activation at 1 µM ([1]; test compound at 1.0 μM) [%]	solubility ([2]; water) [µg/mL]	further results
Cc1cc(C)n2ccc(C(=O)NC3CC4CCC(C3)N4CC(F)(F)F)c2n1 (stereo not drawn) [III-128]	< 10	< 30	–	solubility (physchem): 18.9 µg/mL (≈ 49.7 µM)
CCCCCC(=O)N1C2CCC1CC(NC(=O)c1ccn3c(C)cc(C)nc13)C2 (stereo not drawn) [III-127]	< 10	< 30	–	solubility (physchem): 6.5 µg/mL (≈ 16.4 µM)
